Experimental data: patent US8685974B2 (Bayer CropScience AG, priority 2009, dated 2014)
Several values for one entry are separate records, joined by “and”; a condition that tells them apart may be missing. Equal entries are not always repeated. Where two headings read alike, the source gives them in different places. Marks after values point to notes of the source that are not given here.

Tests used:
Sphaerotheca fuliginea = assay: In vivo test on Sphaerotheca fuliginea (cucurbits powdery mildew); conditions: dose of 500 ppm; gherkin plants; grading 12 days after contamination
Protocol: In Vivo Test on Sphaerotheca fuliginea (Cucurbits Powdery Mildew)
(§1) The active ingredients tested are prepared by homogenization in a mixture of acetone/tween/DMSO, then diluted with water to obtain the desired active material.
Gherkin plants (Vert petit de Paris variety) in starter cups, sown on a 50/50 peat soil-pozzolana substrate and grown at 20° C./23° C., are treated at the cotyledon Z10 stage by spraying with the aqueous suspension described above. Plants, used as controls, are treated with an aqueous solution not containing the active material.
After 24 hours, the plants are contaminated by spraying them with an aqueous suspension of Sphaerotheca fuliginea spores (100 000 spores per ml). The spores are collected from a contaminated plants. The contaminated gherkin plants are incubated at about 20° C./25° C. and at 60/70% relative humidity.
Grading (% of efficacy) is carried out 12 days after the contamination, in comparison with the control plants.

[1] = pH 2.7; for logP value of the minor isomer (in parenthesis in column Isomer ratio [d]): main value of the example measured by method [b]
Fusarium graminearum = assay type: cell-based; conditions: 50 μM; for % Inhibition of DON/AcDON at 50 μM: 7 days at 28° C.
Leptosphaeria nodorum = Leptosphaeria nodorum test (wheat) / protective; assay type: in vivo; conditions: 500 ppm active compound, protective spray, evaluated 7-9 days after inoculation
Protocol: Leptosphaeria nodorum Test (Wheat)/Protective
Solvent: 49 parts by weight of N,N-dimethylformamide
Emulsifier: 1 part by weight of alkylaryl polyglycol ether
To produce a suitable preparation of active compound, 1 part by weight of active compound is mixed with the stated amounts of solvent and emulsifier, and the concentrate is diluted with water to the desired concentration.
To test for protective activity, young wheat plants are sprayed with the preparation of active compound at the stated application rate. […] The plants are then placed in a greenhouse at 90% rel. atmospheric humidity and a temperature of 22° C.
Evaluation is carried out 7-9 days after the inoculation. 0% means an efficacy which corresponds to that of the control, whereas an efficacy of 100% means that no infection is observed.

Alternaria solani = assay: Alternaria test (tomato) / protective; assay type: in vivo; conditions: 500 ppm active compound, protective spray, evaluated 7 days after inoculation
Method in brief: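 Young tomato plants sprayed protectively with compound formulated in DMF with alkylaryl polyglycol ether emulsifier and diluted in water to the application rate. After inoculation, plants held at 96% rel. humidity and 20° C. Efficacy scored 7 days post-inoculation: 0% equals untreated control, 100% no infection.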

[2] = logP by HPLC on reversed phase columns, method [a] (pH 2.3); assay type: physicochemical; conditions: for log p: method [a]: pH 2.3, 0.1% phosphoric acid and acetonitrile as eluent, main isomer
Fusarium proliferatum = assay: Production of fumonisin FB1 by Fusarium proliferatum (microtiter plate, HPLC-MS/MS and OD620); assay type: cell-based; conditions: for % inhibition FB1 production at 50 μM: 5 days at 20° C., HPLC-MS/MS; for % inhibition fungal growth at 50 μM: Fusarium proliferatum, OD620 at start and after 5 days
Peronospora parasitica = assay: In vivo test on Peronospora parasitica (crucifer downy mildew); conditions: dose of 500 ppm; cabbage plants; grading 5 days after contamination
Protocol: In Vivo Test on Peronospora parasitica (Crucifer Downy Mildew)
The active ingredients tested are prepared by homogenization in a mixture of acetone/Tween/DMSO, then diluted with water to obtain the desired active material concentration.
Cabbage plants (Eminence variety) in starter cups, sown on a 50/50 peat soil-pozzolana substrate and grown at 18-20° C., are treated at the cotyledon stage by spraying with the aqueous suspension described above.
(§2) Plants, used as controls, are treated with an aqueous solution not containing the active material.
After 24 hours, the plants are contaminated by spraying them with an aqueous suspension of Peronospora parasitica spores (50 000 spores per ml). The spores are collected from infected plant.
The contaminated cabbage plants are incubated for 5 days at 20° C., under a humid atmosphere.
Grading is carried out 5 days after the contamination, in comparison with the control plants.

Pyrenophora teres = assay: In vivo test on Pyrenophora teres (barley net blotch); conditions: dose of 500 ppm; barley plants; grading 12 days after contamination
Method in brief: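 Barley plants (Plaisant) grown at 12° C. sprayed at 1-leaf stage with compound in acetone/Tween/DMSO diluted in water; 24 h later inoculated with P. teres spores (12,000 spores/ml). Incubated 24 h at ~20° C., 100% RH, then 12 days at 80% RH; graded 12 days post-inoculation against untreated controls.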

Puccinia recondita = assay: In vivo test on Puccinia recondita (brown rust); conditions: dose of 500 ppm; wheat plants; grading 10 days after contamination
Protocol: In Vivo Test on Puccinia recondita (Brown Rust)
as §1
Wheat plants (Scipion variety) sown on 50/50 peat soil-pozzolana substrate in starter cups and grown at 12° C., are treated at the 1-leaf stage (10 cm tall) by spraying with the aqueous suspension described above.
as §2
After 24 hours, the plants are contaminated by spraying the leaves with an aqueous suspension of Puccinia recondita spores (100,000 spores per ml). The spores are collected from a 10-day-old contaminated wheat and are suspended in water containing 2.5 ml/l of tween 80 10%. The contaminated wheat plants are incubated for 24 hours at 20° C. and at 100% relative humidity, and then for 10 days at 20° C. and at 70% relative humidity.
Grading is carried out 10 days after the contamination, in comparison with the control plants.

| Compound | log p [1] | % Inhibition of fungal growth at 50 μM (Fusarium graminearum) | % Inhibition of DON/AcDON at 50 μM (Fusarium graminearum) | log p [2] | also measured |
| --- | --- | --- | --- | --- | --- |
| CC(C)=CCn1cc(-c2ccncc2)c(-c2ccc(Cl)s2)n1 [Example 7] | 2.25^[b] |  |  |  | protection (% of efficacy) (Sphaerotheca fuliginea): 78% |
| Brc1ccc(-c2n[nH]cc2-c2ccncc2)s1 [Example 408] |  | 0% | 97% | 0.94^[a] | efficacy (Leptosphaeria nodorum): 78%; efficacy (Alternaria solani): 70% |
| CC(C)Cn1cc(-c2ccnc(O)n2)c(-c2ccc(Cl)s2)n1 [Example 398] |  |  |  | 2.62^[a] |  |
| CC#Cc1c(-c2ccncc2)c(-c2ccc(Cl)s2)nn1Cc1ccc(OC)cc1 [Example 420] |  |  |  | 3.02^[a] | % inhibition FB1 production at 50 μM (Fusarium proliferatum): 90%; % inhibition fungal growth at 50 μM (Fusarium proliferatum): 21%; logP value of the minor isomer ([2]; minor isomer, in parentheses in the Isomer ratio column, method [a], pH 2.3): (2.53) |
| CC(C)Cn1cc(-c2ccnc3ccccc23)c(-c2ccc(Cl)s2)n1 [Example 421] |  |  |  | 3.69^[a] | efficacy (Alternaria solani): 89% |
| CC(C)C(C)n1ncc(-c2ccncc2)c1-c1ccc(Cl)s1 (stereo not shown) [Example 20] | 2.1^[b] |  |  |  | protection (Peronospora parasitica): at least 70% |
| CC(C)n1nc(-c2ccc(Cl)s2)c(-c2ccncc2)c1C1CC1 [Example 418] |  |  |  | 2.44^[a] |  |
| CC#Cc1c(-c2ccncc2)c(-c2ccc(Cl)s2)nn1C(C)C [Example 412] |  | 98% | 93% | 2.78^[a] | efficacy (Leptosphaeria nodorum): 70%; efficacy (Alternaria solani): 90% |
| CC#Cc1[nH]nc(-c2ccc(Cl)s2)c1-c1ccncc1 [Example 419] |  |  |  | 1.44^[a] |  |
| CC(C)Cn1cc(-c2cc(N)ncn2)c(-c2ccc(Cl)s2)n1 [Example 423] |  | 91% | 99% | 1.97^[a] | efficacy (Leptosphaeria nodorum): 80%; protection (Pyrenophora teres): 75%; efficacy (Alternaria solani): 94% |
| FC(F)(F)c1ccc(-c2c(-c3ccncc3)cnn2C2CCCCO2)s1 (stereo not shown) [Example 403] |  |  |  | 1.94^[a] |  |
| Clc1ccc(-c2nn(Cc3ccccc3)cc2-c2ccncn2)s1 [Example 5] | 3.41^[b] |  |  |  | % inhibition FB1 production at 50 μM (Fusarium proliferatum): 81%; % inhibition fungal growth at 50 μM (Fusarium proliferatum): 0%; protection (Pyrenophora teres): 70%; logP value of the minor isomer (in parenthesis in column Isomer ratio [d]) [1]: (3.17) |
| CC(C)Cn1nc(-c2ccc(Cl)s2)c(-c2ccncc2)c1C1CC1 [Example 414] |  | 11% | 84% | 2.7^[a] |  |
| c1cc(-c2c[nH]nc2-c2cc3ccsc3s2)ccn1 [Example 409] |  |  |  | 1.13^[a] | efficacy (Leptosphaeria nodorum): 78% |
| CCC(C)n1nc(C2CC2)c(-c2ccncc2)c1-c1ccc(Cl)s1 (stereo not shown) [Example 415] |  |  |  | 2.73^[a] |  |
| Clc1ccc(-c2nn(CCc3ccccc3)cc2-c2ccncc2)s1 [Example 58] | 2.3^[b] |  |  |  | protection (% of efficacy) (Sphaerotheca fuliginea): 81% |
| CC(=O)Nc1nccc(-c2cn(CC(C)C)nc2-c2ccc(Cl)s2)n1 [Example 410] |  | 0% | 83% | 3.04^[a] | efficacy (Leptosphaeria nodorum): 94% |
| CC(C)Cn1nc(C2CC2)c(-c2ccncc2)c1-c1ccc(Cl)s1 [Example 413] |  |  |  | 2.61^[a] | efficacy (Leptosphaeria nodorum): 70% |

| Compound | log p [1] | % Inhibition of fungal growth at 50 μM (Fusarium graminearum) | % Inhibition of DON/AcDON at 50 μM (Fusarium graminearum) | log p [2] | also measured |
| --- | --- | --- | --- | --- | --- |
| CC(C)Cn1cc(-c2ccnc(NC(=O)C(C)C)c2)c(-c2ccc(Cl)s2)n1 [Example 397] |  | 32% | 97% | 3.83^[a] | protection (Pyrenophora teres): 90%; efficacy (Alternaria solani): 100% |
| CCC(=O)Nc1cc(-c2cn(CC(C)C)nc2-c2ccc(Cl)s2)ccn1 [Example 396] |  | 30% | 100% | 3.33^[a] | protection (Pyrenophora teres): 70%; efficacy (Alternaria solani): 100% |
| CC#CCn1cc(-c2ccncc2)c(-c2ccc(Cl)s2)n1 [Example 51] | 1.81^[b] |  |  |  | protection (Puccinia recondita): 75%; protection (% of efficacy) (Sphaerotheca fuliginea): 100%; logP value of the minor isomer (in parenthesis in column Isomer ratio [d]) [1]: (1.60) |
| CCC(C)n1cc(-c2ccnc(NC(C)=O)c2)c(-c2ccc(Cl)s2)n1 (stereo not shown) [Example 110] | 2.94^[b] | 99% | 100% |  | % inhibition FB1 production at 50 μM (Fusarium proliferatum): 99%; % inhibition fungal growth at 50 μM (Fusarium proliferatum): 86%; efficacy (Leptosphaeria nodorum): 95%; protection (Pyrenophora teres): 100%; efficacy (Alternaria solani): 95% |
| CCC(C)n1cc(-c2ccncc2)c(-c2ccc(C(F)(F)F)s2)n1 (stereo not shown) [Example 400] |  | 0% | 99% | 2.58^[a] |  |
| CCOC(=O)Cn1cc(-c2ccncc2)c(-c2ccc(Cl)s2)n1 [Example 63] | 1.67^[b] |  |  |  | protection (Peronospora parasitica): 94%; protection (% of efficacy) (Sphaerotheca fuliginea): 88% |
| Cc1cn(-c2cc(-c3cn(CC(C)C)nc3-c3ccc(Cl)s3)ccn2)cn1 [Example 399] |  | 0% | 90% | 2.56^[a] | efficacy (Alternaria solani): 78% |
| CC(C)Cn1cc(-c2ccnc(NC(C)C)n2)c(-c2ccc(Cl)s2)n1 [Example 411] |  | 98% | 99% | 4.34^[a] |  |
| CCC(C)n1cc(-c2cc[n+]([O-])cc2)c(-c2ccc(Cl)s2)n1 (stereo not shown) [Example 92] | 2.56^[b] |  |  |  | protection (% of efficacy) (Sphaerotheca fuliginea): 100% |
| Clc1ccc(-c2nn(CC3CCCO3)cc2-c2ccncc2)s1 (stereo not shown) [Example 56] | 1.6^[b] |  |  |  | protection (% of efficacy) (Sphaerotheca fuliginea): 88%; logP value of the minor isomer (in parenthesis in column Isomer ratio [d]) [1]: (1.44) |
| CC(C)n1nc(C2CC2)c(-c2ccncc2)c1-c1ccc(Cl)s1 [Example 417] |  |  |  | 2.44^[a] | efficacy (Leptosphaeria nodorum): 80% |
| CC(C)CC(C)n1ncc(-c2ccncc2)c1-c1ccc(Cl)s1 (stereo not shown) [Example 14] | 2.42^[b] |  |  |  | protection (% of efficacy) (Sphaerotheca fuliginea): 78% |
| CCC(C)n1nc(-c2ccc(Cl)s2)c(-c2ccncc2)c1C1CC1 (stereo not shown) [Example 416] |  | 8% | 91% | 2.75^[a] | efficacy (Leptosphaeria nodorum): 70% |
| CC(C)Cn1cc(-c2cc(O)ncn2)c(-c2ccc(Cl)s2)n1 [Example 422] |  |  |  | 2.84^[a] |  |
| Clc1ccc(-c2nn(C3CC3)cc2-c2ccncc2)s1 [Example 66] | 1.62^[b] |  |  |  | protection (Puccinia recondita): 89% and 95%; protection (% of efficacy) (Sphaerotheca fuliginea): 95%; protection (Pyrenophora teres): 92% |
| CC(C)n1cc(-c2ccncc2)c(-c2ccc(F)s2)n1 [Example 108] | 1.53^[b] | 99% | 100% |  | % inhibition FB1 production at 50 μM (Fusarium proliferatum): 100%; % inhibition fungal growth at 50 μM (Fusarium proliferatum): 25%; efficacy (Alternaria solani): 100% |
| CC(C)n1cc(-c2ccncc2)c(-c2ccc(C(F)(F)F)s2)n1 [Example 401] |  | 0% | 99% | 2.2^[a] | efficacy (Alternaria solani): 78% |
